# Source: ChEMBL document CHEMBL3885881, “DrugMatrix”
# Species on record: Rattus norvegicus
# Assay: DrugMatrix - Regimen: Daily Repeat
# Format: toxicity, organism-based, Sprague-Dawley
# Set-up: regimen Daily Repeat, gender Male, age 6-8 weeks
# Conditions: in vivo, po, 0 mg/kg, route oral GAVAGE, dose level Control, […]; for ABSOLUTE BASOPHIL / ABSOLUTE EOSINOPHIL / ABSOLUTE LYMPHOCYTE / ABSOLUTE MONOCYTE / BASOPHIL / EOSINOPHIL / ERYTHROCYTE COUNT / HEMATOCRIT / HEMOGLOBIN / LEUKOCYTE COUNT / LYMPHOCYTE / MEAN CORPUSCULAR HEMOGLOBIN / MEAN CORPUSCULAR HEMOGLOBIN CONCENTRATION / MEAN CORPUSCULAR VOLUME / MONOCYTE / NEUTROPHIL / PLATELET COUNT: tissue Blood
# [1] = 72 h, tissue Plasma, time 3 day
# [2] = 120 h, tissue Plasma, time 5 day
smiles,measurement,setting,value
"Clc1ccc(Cl)cc1 [1,4-DICHLOROBENZENE]",ABSOLUTE BASOPHIL,"72 h, time 3 day",50 cells/µL
same,ABSOLUTE EOSINOPHIL,"72 h, time 3 day",43.3 cells/µL
same,ABSOLUTE LYMPHOCYTE,"72 h, time 3 day",9670 cells/µL
same,ABSOLUTE MONOCYTE,"72 h, time 3 day",210 cells/µL
same,BASOPHIL,"72 h, time 3 day",0.4%
same,EOSINOPHIL,"72 h, time 3 day",0.37%
same,ERYTHROCYTE COUNT,"72 h, time 3 day",6.82 x10E6/uL
same,HEMATOCRIT,"72 h, time 3 day",46.77%
same,HEMOGLOBIN,"72 h, time 3 day",14.53 G/DL
same,LEUKOCYTE COUNT,"72 h, time 3 day",11.77 x10E3/uL
same,LYMPHOCYTE,"72 h, time 3 day",82.1%
same,MEAN CORPUSCULAR HEMOGLOBIN,"72 h, time 3 day",21.33 pg
same,MEAN CORPUSCULAR HEMOGLOBIN CONCENTRATION,"72 h, time 3 day",31.13 G/DL
same,MEAN CORPUSCULAR VOLUME,"72 h, time 3 day",68.57 fL
same,MONOCYTE,"72 h, time 3 day",1.8%
same,NEUTROPHIL,"72 h, time 3 day",14.83%
same,PLATELET COUNT,"72 h, time 3 day",1303.33 x10E3/uL
same,ALANINE AMINOTRANSFERASE,[1],46.67 u/L
same,ALBUMIN,[1],4.17 G/DL
same,ALKALINE PHOSPHATASE,[1],530 u/L
same,ASPARTATE AMINOTRANSFERASE,[1],81.33 u/L
same,BLOOD UREA NITROGEN,[1],17.67 mg/dL
same,CARBON DIOXIDE,[1],41.67 mmol/L
same,CHLORIDE,[1],102 MEQ/L
same,CHOLESTEROL,[1],70.33 mg/dL
same,CREATINE PHOSPHOKINASE,[1],372.67 u/L
same,CREATININE,[1],0.5 mg/dL
same,GLUCOSE,[1],184 mg/dL
same,LIPASE,[1],13.33 u/L
same,PHOSPHORUS,[1],10.2 mg/dL
same,POTASSIUM,[1],6.13 MEQ/L
same,SODIUM,[1],145 MEQ/L
same,TOTAL BILIRUBIN,[1],0.43 mg/dL
same,TOTAL PROTEIN,[1],6.7 G/DL
same,URIC ACID,[1],0.83 mg/dL
same,ABSOLUTE BASOPHIL,"120 h, time 5 day",33.3 cells/µL
same,ABSOLUTE EOSINOPHIL,"120 h, time 5 day",56.7 cells/µL
same,ABSOLUTE LYMPHOCYTE,"120 h, time 5 day",9220 cells/µL
same,ABSOLUTE MONOCYTE,"120 h, time 5 day",230 cells/µL
same,BASOPHIL,"120 h, time 5 day",0.3%
same,EOSINOPHIL,"120 h, time 5 day",0.5%
same,ERYTHROCYTE COUNT,"120 h, time 5 day",6.62 x10E6/uL
same,HEMATOCRIT,"120 h, time 5 day",46.43%
same,HEMOGLOBIN,"120 h, time 5 day",14.3 G/DL
same,LEUKOCYTE COUNT,"120 h, time 5 day",10.96 x10E3/uL
same,LYMPHOCYTE,"120 h, time 5 day",83.83%
same,MEAN CORPUSCULAR HEMOGLOBIN,"120 h, time 5 day",21.57 pg
same,MEAN CORPUSCULAR HEMOGLOBIN CONCENTRATION,"120 h, time 5 day",30.77 G/DL
same,MEAN CORPUSCULAR VOLUME,"120 h, time 5 day",70.13 fL
same,MONOCYTE,"120 h, time 5 day",2.1%
same,NEUTROPHIL,"120 h, time 5 day",12.53%
same,PLATELET COUNT,"120 h, time 5 day",1056.67 x10E3/uL
same,ALANINE AMINOTRANSFERASE,[2],41.33 u/L
same,ALBUMIN,[2],4.07 G/DL
same,ALKALINE PHOSPHATASE,[2],603.33 u/L
same,ASPARTATE AMINOTRANSFERASE,[2],80 u/L
same,BLOOD UREA NITROGEN,[2],14.67 mg/dL
same,CARBON DIOXIDE,[2],43 mmol/L
same,CHLORIDE,[2],104 MEQ/L
same,CHOLESTEROL,[2],88.33 mg/dL
same,CREATINE PHOSPHOKINASE,[2],391.67 u/L
same,CREATININE,[2],0.47 mg/dL
same,GLUCOSE,[2],156 mg/dL
same,LIPASE,[2],10.67 u/L
same,PHOSPHORUS,[2],9.03 mg/dL
same,POTASSIUM,[2],6.1 MEQ/L
same,SODIUM,[2],145.67 MEQ/L
same,TOTAL BILIRUBIN,[2],0.37 mg/dL
same,TOTAL PROTEIN,[2],6.53 G/DL
same,URIC ACID,[2],0.5 mg/dL
same,ABSOLUTE BASOPHIL,time 14 day,73.3 cells/µL
same,ABSOLUTE EOSINOPHIL,time 14 day,60 cells/µL
same,ABSOLUTE LYMPHOCYTE,time 14 day,12200 cells/µL
same,ABSOLUTE MONOCYTE,time 14 day,250 cells/µL
same,BASOPHIL,time 14 day,0.5%
same,EOSINOPHIL,time 14 day,0.37%
same,ERYTHROCYTE COUNT,time 14 day,7.33 x10E6/uL
same,HEMATOCRIT,time 14 day,44.3%
same,HEMOGLOBIN,time 14 day,14.77 G/DL
same,LEUKOCYTE COUNT,time 14 day,14.86 x10E3/uL
same,LYMPHOCYTE,time 14 day,81.87%
same,MEAN CORPUSCULAR HEMOGLOBIN,time 14 day,20.2 pg
same,MEAN CORPUSCULAR HEMOGLOBIN CONCENTRATION,time 14 day,33.33 G/DL
same,MEAN CORPUSCULAR VOLUME,time 14 day,60.57 fL
same,MONOCYTE,time 14 day,1.63%
same,NEUTROPHIL,time 14 day,14.93%
same,PLATELET COUNT,time 14 day,1101.67 x10E3/uL
same,ALANINE AMINOTRANSFERASE,"tissue Plasma, time 14 day",31.67 u/L
same,ALBUMIN,"tissue Plasma, time 14 day",3.83 G/DL
same,ALKALINE PHOSPHATASE,"tissue Plasma, time 14 day",430.67 u/L
same,ASPARTATE AMINOTRANSFERASE,"tissue Plasma, time 14 day",87 u/L
same,BLOOD UREA NITROGEN,"tissue Plasma, time 14 day",14.33 mg/dL
same,CARBON DIOXIDE,"tissue Plasma, time 14 day",39 mmol/L
same,CHLORIDE,"tissue Plasma, time 14 day",104 MEQ/L
same,CHOLESTEROL,"tissue Plasma, time 14 day",66 mg/dL
same,CREATINE PHOSPHOKINASE,"tissue Plasma, time 14 day",441.67 u/L
same,CREATININE,"tissue Plasma, time 14 day",0.7 mg/dL
same,GLUCOSE,"tissue Plasma, time 14 day",125.67 mg/dL
same,LACTATE DEHYDROGENASE,"tissue Plasma, time 14 day",397.67 u/L
same,LIPASE,"tissue Plasma, time 14 day",12.33 u/L
same,PHOSPHORUS,"tissue Plasma, time 14 day",9.87 mg/dL
same,POTASSIUM,"tissue Plasma, time 14 day",5.93 MEQ/L
same,SODIUM,"tissue Plasma, time 14 day",145 MEQ/L
same,TOTAL BILIRUBIN,"tissue Plasma, time 14 day",0.37 mg/dL
same,TOTAL PROTEIN,"tissue Plasma, time 14 day",6.27 G/DL
same,URIC ACID,"tissue Plasma, time 14 day",0.67 mg/dL
